US4054734A, “Amphotericin complexes containing citric acid and calcium” (priority 1976, dated 1977)

Columns and labels:
[1] = solubility in methanol adjusted to pH 9.5 with triethylamine; type: physicochemical; conditions: pH adjusted to 9.5 with triethylamine
[2] = solubility in methanol; type: physicochemical
Protocol: The complexes of the present invention are less soluble in methanol than amphotericin B. Forty mg of the complexes of the present invention are soluble in 750 ml of methanol, whereas 100 mg of amphotericin B are soluble in 750 ml of methanol.

C[C@@H]1[C@H](O)[C@@H](C)/C=C/C=C/C=C/C=C/C=C/C=C/C=C/[C@H](O[C@@H]2O[C@H](C)[C@@H](O)[C@H](N)[C@@H]2O)C[C@@H]2O[C@](O)(C[C@@H](O)C[C@@H](O)[C@H](O)CC[C@@H](O)C[C@@H](O)CC(=O)O[C@H]1C)C[C@H](O)[C@H]2C(=O)O [amphotericin B]
solubility in methanol at pH 9.5 (in words) ([1]; 100 mg in 80 ml of methanol): completely soluble
solubility in methanol (in words) ([2]; 100 mg in 750 ml of methanol): completely soluble
amount soluble in methanol ([2]; in 750 ml of methanol): 100 mg

Amphotericin B-Calcium-Oxalic Acid Complex [Example 1]
extent of solubility in methanol at pH 9.5 ([1]; 100 mg added to 80 ml of methanol): 35%
extent of solubilization in methanol ([2]; 100 mg added to 750 ml of methanol): 40%
